Data as given in patent publication US20250163002A1, “FUSED QUINONOXIME IMIDAZOLE, ONIUM DERIVATIVES THEREOF, PREPARATION AND USE THEREOF” (SHANGHAI JIAO TONG UNIVERSITY, priority 2022, published 2025).
Structures can show the parent of a compound that is named as a salt.

Legend:
Format in all cases: cell-based
Conditions in all cases: 24 h or 48 h after addition, unit inferred
A549 = test: In vitro inhibition test for cancer cell proliferation (MTT), A549
HeLa = test: In vitro inhibition test for cancer cell proliferation (MTT), HeLa
MCF-7 = test: In vitro inhibition test for cancer cell proliferation (MTT), MCF-7
L929 = test: In vitro cell proliferation inhibition test (MTT), L929

Row | SMILES | IC50 (A549) [µM] | IC50 (HeLa) [µM] | IC50 (MCF-7) [µM] | IC50 (L929) [µM]
1 | CCCCn1c[n+](C)c2c1C(=O)c1ccccc1C2=NOC [Compound 119, (E) and (Z)-1-butyl-4-(methoxylimino)-3-methyl-9-oxo-4,9-dihydro-1H-naphthol[2,3-d]imidazole-3-iodide] | 0.52 | 33 | 18.1 | 4.6
2 | CCCCn1c[n+](C)c2c1C(=O)c1ccccc1C2=NOCC [Compound 120, (E) and (Z)-1-butyl-4-(ethoxylimino)-3-methyl-9-oxo-4,9-dihydro-1H-naphthol[2,3-d]imidazole-3-iodide] | 0.69 | 26 | 13 | > 100
3 | CCCCn1c[n+](C)c2c1C(=O)c1ccccc1C2=NOCc1ccccc1 [Compound 121, (E) and (Z)-4-((benzyloxy)imino)-1-butyl-3-methyl-9-oxo-4,9-dihydro-1H-naphthol[2,3-d]imidazole-3-iodide] | 0.09 | 28 | 6.8 | 61
4 | CCCCn1c[n+](CC)c2c1C(=O)c1ccccc1C2=NOC [Compound 122, (E) and (Z)-1-butyl-3-ethyl-4-(methoxylimino)-9-oxo-4,9-dihydro-1H-naphthol[2,3-d]imidazole-3-iodide] | 1.8 | 52 | 33 | > 100
5 | CC[n+]1cn(C)c2c1C(=NOC)c1ccccc1C2=O [Compound 126, (E) and (Z)-3-ethyl-4-(methoxylimino)-1-methyl-9-oxo-4,9-dihydro-1H-naphthol[2,3-d]imidazole-3-iodide] | 0.59 | 39 | 12.2 | 85.2
6 | CC(C)CON=C1c2ccccc2C(=O)c2c1[n+](C)cn2C [Compound 129, (E) and (Z)-4-(isobutoxyimino)-1,3-dimethyl-9-oxo-4,9-dihydro-1H-naphthol[2,3-d]imidazole-3-iodide] | 0.07 | 8.7 | 12.1 | 26.4
7 | Cn1c[n+](C)c2c1C(=O)c1ccccc1C2=NOC(C)(C)C [Compound 130, (E) and (Z)-4-(tert-butoxyimino)-1,3-dimethyl-9-oxo-4,9-dihydro-1H-naphthol[2,3-d]imidazole-3-iodide] | 0.6 | 48.4 | 56.2 | > 100
8 | Cn1c[n+](C)c2c1C(=O)c1ccccc1C2=NOCC1CC1 [Compound 131, (E) and (Z)-4-((cyclopropylmethoxy)imino)-1,3-dimethyl-9-oxo-4,9-dihydro-1H-naphthol[2,3-d]imidazole-3-iodide] | 0.07 | 21 | 9.9 | 24.7
9 | C=CCON=C1c2ccccc2C(=O)c2c1[n+](C)cn2C [Compound 132, (E) and (Z)-4-((allyloxy)imino)-1,3-dimethyl-9-oxo-4,9-dihydro-1H-naphthol[2,3-d]imidazole-3-iodide] | 0.06 | 46.3 | 56.1 | 2.4
10 | COc1ccc(CON=C2c3ccccc3C(=O)c3c2[n+](C)cn3C)cc1 [Compound 133, (E) and (Z)-4-(((4-methoxybenzyl)oxy)imino)-1,3-dimethyl-9-oxo-4,9-dihydro-1H-naphthol[2,3-d]imidazole-3-iodide] | 0.08 | 23.9 | 17.9 | 16
11 | Cn1c[n+](C)c2c1C(=O)c1ccccc1C2=NOCc1ccc(Cl)cc1 [Compound 134, (E) and (Z)-4-(((4-chlorobenzyl)oxy)imino)-1,3-dimethyl-9-oxo-4,9-dihydro-1H-naphthol[2,3-d]imidazole-3-iodide] | 0.07 | 17.5 | 25.6 | 4.9
12 | Cn1c[n+](C)c2c1C(=O)c1ccccc1C2=NOCc1ccc(C(F)(F)F)cc1 [Compound 135, (E) and (Z)-1,3-dimethyl-9-oxo-4-(((4-(trifluoromethyl)benzyl)oxy)imino)-4,9-dihydro-1H-naphthol[2,3-d]imidazole-3-iodide] | 0.16 | 45.4 | 34.9 | 4.03
13 | Cn1c[n+](C)c2c1C(=O)c1ccccc1C2=NOCc1ccc(F)cc1 [Compound 136, (E) and (Z)-4-(((4-fluorobenzyl)oxy)imino)-1,3-dimethyl-9-oxo-4,9-dihydro-1H-naphthol[2,3-d]imidazole-3-iodide] | 0.06 | 23.9 | 29.8 | 4.4
14 | Cn1c[n+](C)c2c1C(=O)c1ccccc1C2=NOCc1c(F)c(F)c(F)c(F)c1F [Compound 137, (E) and (Z)-1,3-dimethyl-9-oxo-4-(((perfluorophenyl)methoxy)imino)-4,9-dihydro-1H-naphthol[2,3-d]imidazole-3-iodide] | 0.05 | 15.4 | 24.8 | 9.7
15 | Cn1c[n+](C)c2c1C(=O)c1ccccc1C2=NOCc1ccccc1 [Compound 138, (E) and (Z)-4-((benzyloxy)imino)-1,3-dimethyl-9-oxo-4,9-dihydro-1H-naphthol[2,3-d]imidazole-3-iodide] | 0.004 | 4.2 | 5.9 | 25.9
16 | Cn1c[n+](C)c2c1C(=O)c1ccccc1C2=NOCc1ccccc1 [Compound 139, (E) and (Z)-4-((benzyloxy)imino)-1,3-dimethyl-9-oxo-4,9-dihydro-1H-naphthol[2,3-d]imidazole-3-p-toluenesulfonamide] | 0.005 | 6.8 | 8.6 | 19.9
17 | Cn1c[n+](C)c2c1C(=O)c1ccccc1C2=NOCc1ccccc1 [Compound 140, (E) and (Z)-4-((benzyloxy)imino)-1,3-dimethyl-9-oxo-4,9-dihydro-1H-naphthol[2,3-d]imidazole-3-dimethyl sulfate] | 0.007 | 9.8 | 10.9 | 34.5
18 | Cn1c[n+](C)c2c1C(=O)c1ccccc1C2=NOCc1ccc([N+](=O)[O-])cc1 [Compound 141, (E) and (Z)-1,3-dimethyl-4-(((4-nitrobenzyl)oxy)imino)-9-oxo-4,9-dihydro-1H-naphthol[2,3-d]imidazole-3-iodide] | 0.05 | 23.9 | 45.6 | 23.4
19 | Cn1c[n+](C)c2c1C(=O)c1ccccc1C2=NOc1ccccc1 [Compound 142, (E) and (Z)-4-((phenoxy)imino)-1,3-dimethyl-9-oxo-4,9-dihydro-1H-naphthol[2,3-d]imidazole-3-iodide] | 0.06 | 34 | 43.5 | 61.3
20 | Cn1c[n+](C)c2c1C(=O)c1ccccc1/C2=N\OCC1OCCO1 [Compound 143, (E)-4-(((1,3-dioxoheterocycle-2-yl)methoxy)imino)-1,3-dimethyl-9-oxo-4,9-dihydro-1H-naphthol[2,3-d]imidazole-3-iodide] | 0.03 | 25.8 | 34.9 | 34.8
21 | COCCO/N=C1\c2ccccc2C(=O)c2c1[n+](C)cn2C [Compound 144, (E)-4-((2-methoxyethoxy)imino)-1,3-dimethyl-9-oxo-4,9-dihydro-1H-naphthol[2,3-d]imidazole-3-iodide] | 0.06 | 23.3 | 33 | 46.6
